Results taken from patent US10265321B2, “Uses of salt-inducible kinase (SIK) inhibitors” (Dana-Farber Cancer Institute, Inc., priority 2014, dated 2019).
Like-named read-outs stand apart in the source and are kept apart here.

Assays:
[1] = tested on: IL-10 production by zymosan-stimulated BMDCs; assay: IL-10 up-regulation in zymosan-stimulated BMDCs (AlphaLISA/ELISA); format: cell-based, mouse
Procedure: (§1) Bone marrow-derived DCs were differentiated from C57BL/6 bone marrow in the presence of GM-CSF-conditioned media. CD11c^+ CX3CR1^hi myeloid cells and CD11c^+ CX3CR1^− DCs were isolated from the small intestine lamina propria of Cx3cr1^eGFP/+ mice (12). Detection of cell-surface Thy1.1 expression on BMDCs from 10BiT reporter mice was conducted as described previously (24). Cell viability was estimated by change in total cellular ATP levels using CellTiterGlo assays (Promega). Preparation of recombinant SIK proteins and IC50 measurements were conducted as described previously (21). Total RNA was extracted using a NucleoSpin 96 RNA isolation kit (Macherey-Nagel) followed by cDNA synthesis and multiplex RT-PCR using a microfluidic dynamic array (Fluidigm). The concentrations of TNF-α, IL-6, IL-10, IL-12p40, IL-1β and RANTES in culture supernatants were detected using a FlexSet Cytometric bead array (BD Biosciences). Alternatively, IL-10 secretion was quantified using ELISA (BD Biosciences) or AlphaLISA (PerkinElmer) assays. NO production was estimated based on nitrate content in culture medium using the Greiss reagent.
C57BL/6 mice were euthanized and bone marrow harvested from femurs and tibias as described previously (Graham D B, et al. (2007) An ITAM-signaling pathway controls cross-presentation of particulate but not soluble antigens in dendritic cells. The Journal of experimental medicine 204(12):2889-2897). BMDCs were differentiated DMEM supplemented with 2 mM GlutaMAX, 10% (vol/vol) FBS, penicillin, streptomycin and 2% mouse GM-CSF conditioned media derived from TOPO cells. Cultures were differentiated for 7 days and routinely analyzed for >90% CD11c (APC anti-CD11c clone HL3; BD Biosciences) positivity by flow cytometry before use in experiments. Lentiviral transduction of bone marrow cultures was conducted by addition of 293T culture supernatants containing lentiviral particles encoding the CREB dependent luciferase reporter construct or CRTC3 targeting or control shRNAs one day post-isolation. Stable integration of lentiviral shRNA constructs was selected by addition of puromycin (3 μg/mL) on day 4 post-transduction. After 2 days, stably transduced BMDCs were released from selection and used in subsequent assays. Unless otherwise indicated, cells were treated for 2 days with PGE2 (5 μM) or HG-9-91-01 (0.5 μM) or an equivalent concentration of DMSO (≤0.5%) and then stimulated for 18 hr with LPS (100 ng/mL), R848 (10 μg/mL) or zymosan (4 μg/mL).
BMDCs were seeded into black 384-well plates (Corning) at 20,000 cells/well in 40 μL complete DMEM using a Multidrop COMBI (Thermal Scientific) followed by incubation at 37° C. for 2 hr to allow for plate adherence. SIK inhibitors (100 nL/well) were pin-transferred from concentrated DMSO stocks using CyBi-Well Vario (CyBio) into duplicate plates. For each treatment plate, 32 out of 384 wells were pinned with DMSO as negative control and 32 out of 384 wells were pinned with PGE2 (5 μM final concentration). Two days after SIK inhibitor treatment, BMDCs were stimulated with zymosan (4 μg/mL final concentration) dispersed in culture medium (20 μL/well) using a Multidrop COMBI. After 18 hr, 5 μL of resulting supernatant was transferred from the culture plate to white 384-well AlphaLISA plates (Perkin Elmer) using a CyBi-Well Vario. IL-10 abundance in the supernatants was determined using an AlphaLISA assay (PerkinElmer) according to the manufacture's protocol and signal intensity measured using an EnVision multimode plate reader. SIK inhibitor activity was expressed as a % of the differences between the mean abundance of IL-10 in PGE2 versus DMSO wells on a per plate basis. Cell viability assays were conducted on the same tissue culture plates as the IL-10 assay. First media was removed and replaced by solution of 50% (vol/vol) CellTiter-Glo (Promega) in PBS. […]

BMDCs = assay: Cell viability of BMDCs (CellTiter-Glo, cellular ATP); format: cell-based, mouse; conditions: Mus musculus, BMDC; zymosan-stimulated BMDCs; read-out: Viability loss EC50
Procedure: as §1
BMDCs were seeded into black 384-well plates (Corning) at 20,000 cells/well in 40 μL complete DMEM using a Multidrop COMBI (Thermal Scientific) followed by incubation at 37° C. for 2 hr to allow for plate adherence. SIK inhibitors (100 nL/well) were pin-transferred from concentrated DMSO stocks using CyBi-Well Vario (CyBio) into duplicate plates. For each treatment plate, 32 out of 384 wells were pinned with DMSO as negative control and 32 out of 384 wells were pinned with PGE2 (5 μM final concentration). Two days after SIK inhibitor treatment, BMDCs were stimulated with zymosan (4 μg/mL final concentration) dispersed in culture medium (20 μL/well) using a Multidrop COMBI. After 18 hr, 5 μL of resulting supernatant was transferred from the culture plate to white 384-well AlphaLISA plates (Perkin Elmer) using a CyBi-Well Vario. IL-10 abundance in the supernatants was determined using an AlphaLISA assay (PerkinElmer) according to the manufacture's protocol and signal intensity measured using an EnVision multimode plate reader. SIK inhibitor activity was expressed as a % of the differences between the mean abundance of IL-10 in PGE2 versus DMSO wells on a per plate basis. Cell viability assays were conducted on the same tissue culture plates as the IL-10 assay. First media was removed and replaced by solution of 50% (vol/vol) CellTiter-Glo (Promega) in PBS. Luminescence was read using an Envision multimode plate reader, and signal intensity calculated relative to DMSO control wells on a per plate basis.

[2] = Mus musculus, BMDC, zymosan-stimulated BMDCs, read-out: IL-10 induction EC50

EC50 [1, 2] [nM]	Structure (SMILES)	concentrations that suppressed/reduced zymosan-induced IL-10 production ([1]; BMDCs)	EC50 ([1]; BMDCs pre-treated 2 days, zymosan 18 hr, ELISA, read-out: EC50 of potentiation of zymosan-induced IL-10 production) [nM]	EC50 (BMDCs) [µM]
–	COc1ccc(N(C(=O)Nc2c(C)cccc2C)c2cc(Nc3ccc(N4CCN(C)CC4)cc3)ncn2)c(OC)c1 [HG-9-91-01]	greater than 1 μM	~200	–
5620	Cc1cccc(C)c1NC(=O)N1C/C=C\COc2cccc(c2)Nc2cc1ncn2 [I-1]	–	–	10
1460	CCN1CCN(c2ccc(Nc3cc(-n4ccnc4Nc4c(C)cccc4C)ncn3)cc2)CC1 [II-1, 6-(2-((2,6-dimethylphenyl)amino)-1H-imidazol-1-yl)-N-(4-(4-ethylpiperazin-1-yl)phenyl)pyrimidin-4-amine]	–	–	0.0195
